Literature values, collected in patent US20160067273A1, “Compositions and methods for preparation of synthetic alpha-gal nanoparticles and for their clinical use” (priority 2014, published 2016).

Tested on: human natural anti-Gal antibody
Conditions: equilibrium dialysis

Row | SMILES | fold by which affinity of anti-Gal to Galα1-3Galβ1-4GlcNAc is higher than the affinity to this carbohydrate [fold] | other results
1 | OC[C@H]1O[C@H](O[C@H]2[C@@H](O)[C@@H](CO)OC(O)[C@@H]2O)[C@H](O)[C@@H](O)[C@H]1O (some centres unmarked) [Galα1-3Gal] | 10 | –
2 | CC(=O)N[C@H]1C(O)O[C@H](CO)[C@@H](O[C@@H]2O[C@H](CO)[C@H](O)[C@H](O[C@H]3O[C@H](CO)[C@H](O)[C@H](O)[C@H]3O)[C@H]2O)[C@@H]1O (some centres unmarked) [Galα1-3Galβ1-4GlcNAc] | – | affinity (strength of binding) of anti-Gal to synthetic free oligosaccharide, rank: highest
3 | OC[C@H]1O[C@H](O[C@H]2[C@@H](O)[C@@H](CO)O[C@@H](O[C@H]3[C@H](O)[C@@H](O)C(O)O[C@@H]3CO)[C@@H]2O)[C@H](O)[C@@H](O)[C@H]1O (some centres unmarked) [Galα1-3Galβ1-4Glc] | – | affinity of anti-Gal lower than that to Galα1-3Galβ1-4GlcNAc: approximately 30%
4 | OC[C@H]1O[C@H](OCC2O[C@@H](O)[C@H](O)[C@@H](O)[C@@H]2O)[C@H](O)[C@@H](O)[C@H]1O (some centres unmarked) [melibiose, Galα1-6Glc] | 300 | –
5 | CO[C@@H]1O[C@H](CO)[C@H](O)[C@H](O)[C@H]1O [methyl-galactoside] | 300 | –
